{"source": "patent US20110173718A1", "about": "“HERBICIDE TOLERANT PLANTS” (SYNGENTA CROP PROTECTION, INC., priority 2008, published 2011)", "key": {"weeds [1]": {"test_system": "weeds", "experiment": "Glasshouse weed control, HST inhibitors alone and with A22, pre-emergence", "assay_type": "in vivo", "conditions": "336 h, 14 DAT; for pest or weed control at 15.625 g/ha: HST inhibitor rate 15.625 g/ha; for pest or weed control at 62.5 g/ha: HST inhibitor rate 62.5 g/ha; for pest or weed control at 250 g/ha: HST inhibitor rate 250 g/ha", "protocol": "(§1) In a further test, the results of which are depicted in tables 18 and 19, weed seeds are planted out in trays containing 50% peat/50% John Innes no. 3 soil and grown in the glass house at 24-27 C day; 18-21 C night and approximately a 15 h photoperiod. Humidity is ˜65% and light levels at bench level are up to 2 mmol/m^2. Again all spray chemicals are dissolved in 0.2% X77 surfactant and sprayed from a boom on a track sprayer moving at 2 mph with the nozzle set about 2 inches above the plant tops. The spray volume is […]. Sprays are carried out both pre-emergence and post-emergence over small plants at about 7-12 d post-emergence. Plants are assessed at 14 DAT with herbicidal damage scored on a scale from 0 to 100%. The HPPD inhibiting herbicide is compound A22 (4-hydroxy-3-[[2-(2-methoxyethoxy)methyl]-6-(trifluoromethyl)-3-pyridinylicarbonyl]-bicyclo[3.2.1]oct-3-en-2-one) which is sprayed at 2 g/ha both alone and in mixture with various HST herbicides. Results and spray rates are depicted in Tables 18 and 19. Again the Colby formula has been used to calculate synergy scores observed following treatment with the mixture based on the results obtained with the single components alone. Positive synergy is observed between the HPPD herbicide and a wide variety of HST inhibitor herbicides applied both pre and postemergence across a variety of weeds."}, "weeds [2]": {"test_system": "weeds", "experiment": "Glasshouse weed control, HST inhibitors alone and with A22, post-emergence", "assay_type": "in vivo", "conditions": "336 h, 14 DAT, single replicate, read-out: % control score, Obs; for pest or weed control at 15.625 g/ha: 15.625 g/ha alone; for pest or weed control at 62.5 g/ha: 62.5 g/ha alone; for pest or weed control at 250 g/ha: 250 g/ha alone", "protocol": "as §1"}, "Arabidopsis HST": {"target": "T1, Arabidopsis HST (Arabidopsis thaliana, UniProt Q1ACB3)", "T1 construct": "GST (factor Xa cleavage site) (N); made in house; host or cells: Sf9 insect cells (baculovirus, pAcG3X), membrane fraction", "T1 sequence (Q1ACB3 70-386)": "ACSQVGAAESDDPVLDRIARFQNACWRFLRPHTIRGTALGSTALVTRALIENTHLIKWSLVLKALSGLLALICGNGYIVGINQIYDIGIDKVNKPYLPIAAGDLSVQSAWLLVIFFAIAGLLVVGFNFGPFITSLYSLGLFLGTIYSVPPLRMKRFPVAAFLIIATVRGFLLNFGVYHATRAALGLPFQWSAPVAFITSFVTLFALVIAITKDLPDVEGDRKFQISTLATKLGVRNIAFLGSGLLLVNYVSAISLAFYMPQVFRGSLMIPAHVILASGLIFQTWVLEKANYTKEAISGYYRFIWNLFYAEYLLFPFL", "experiment": "HST total extraction (non TLC) assay, recombinant Arabidopsis HST from insect cells", "assay_type": "biochemical"}, "[3]": {"conditions": "BRAPL, read-out: BRAPL Obs, % control score"}, "[4]": {"conditions": "PANMI, read-out: PANMI Obs, % control score"}, "[5]": {"conditions": "SIDSP, read-out: SIDSP Obs, % control score"}, "[6]": {"conditions": "Digitaria sanguinalis, DIGSA, read-out: DIGSA Obs, % control score"}, "[7]": {"conditions": "Echinochloa crus-galli, ECHCG, read-out: ECHCG Obs, % control score"}, "[8]": {"conditions": "Setaria faberi, SETFA, read-out: SETFA Obs, % control score"}}, "data": [{"molecule": "CC1=NN(C)C(=O)C(c2c(C)cc(C)cc2C)C1=O", "note": "(centres unmarked) [Compound 6.1]", "values": [{"measurement": "pest or weed control at 15.625 g/ha", "setting": "weeds [1]; [3]", "value": 0, "unit": "%"}, {"measurement": "pest or weed control at 62.5 g/ha", "setting": "weeds [1]; [3]", "value": 0, "unit": "%"}, {"measurement": "pest or weed control at 250 g/ha", "setting": "weeds [1]; [3]", "value": 10, "unit": "%"}, {"measurement": "pest or weed control at 15.625 g/ha", "setting": "weeds [1]; [4]", "value": 0, "unit": "%"}, {"measurement": "pest or weed control at 62.5 g/ha", "setting": "weeds [1]; [4]", "value": 0, "unit": "%"}, {"measurement": "pest or weed control at 250 g/ha", "setting": "weeds [1]; [4]", "value": 40, "unit": "%"}, {"measurement": "pest or weed control at 15.625 g/ha", "setting": "weeds [1]; [5]", "value": 0, "unit": "%"}, {"measurement": "pest or weed control at 62.5 g/ha", "setting": "weeds [1]; [5]", "value": 0, "unit": "%"}, {"measurement": "pest or weed control at 250 g/ha", "setting": "weeds [1]; [5]", "value": 0, "unit": "%"}, {"measurement": "pest or weed control at 15.625 g/ha", "setting": "weeds [1]; [6]", "value": 0, "unit": "%"}, {"measurement": "pest or weed control at 62.5 g/ha", "setting": "weeds [1]; [6]", "value": 0, "unit": "%"}, {"measurement": "pest or weed control at 250 g/ha", "setting": "weeds [1]; [6]", "value": 2, "unit": "%"}, {"measurement": "pest or weed control at 15.625 g/ha", "setting": "weeds [1]; [7]", "value": 0, "unit": "%"}, {"measurement": "pest or weed control at 62.5 g/ha", "setting": "weeds [1]; [7]", "value": 1, "unit": "%"}, {"measurement": "pest or weed control at 250 g/ha", "setting": "weeds [1]; [7]", "value": 60, "unit": "%"}, {"measurement": "pest or weed control at 15.625 g/ha", "setting": "weeds [1]; [8]", "value": 0, "unit": "%"}, {"measurement": "pest or weed control at 62.5 g/ha", "setting": "weeds [1]; [8]", "value": 2, "unit": "%"}, {"measurement": "pest or weed control at 250 g/ha", "setting": "weeds [1]; [8]", "value": 20, "unit": "%"}, {"measurement": "pest or weed control at 15.625 g/ha", "setting": "weeds [2]; BRAPL", "value": 10, "unit": "%"}, {"measurement": "pest or weed control at 62.5 g/ha", "setting": "weeds [2]; BRAPL", "value": 40, "unit": "%"}, {"measurement": "pest or weed control at 250 g/ha", "setting": "weeds [2]; BRAPL", "value": 75, "unit": "%"}, {"measurement": "pest or weed control at 15.625 g/ha", "setting": "weeds [2]; PANMI", "value": 2, "unit": "%"}, {"measurement": "pest or weed control at 62.5 g/ha", "setting": "weeds [2]; PANMI", "value": 50, "unit": "%"}, {"measurement": "pest or weed control at 250 g/ha", "setting": "weeds [2]; PANMI", "value": 80, "unit": "%"}, {"measurement": "pest or weed control at 15.625 g/ha", "setting": "weeds [2]; SIDSP", "value": 5, "unit": "%"}, {"measurement": "pest or weed control at 62.5 g/ha", "setting": "weeds [2]; SIDSP", "value": 15, "unit": "%"}, {"measurement": "pest or weed control at 250 g/ha", "setting": "weeds [2]; SIDSP", "value": 20, "unit": "%"}, {"measurement": "pest or weed control at 15.625 g/ha", "setting": "weeds [2]; Digitaria sanguinalis, DIGSA", "value": 0, "unit": "%"}, {"measurement": "pest or weed control at 62.5 g/ha", "setting": "weeds [2]; Digitaria sanguinalis, DIGSA", "value": 10, "unit": "%"}, {"measurement": "pest or weed control at 250 g/ha", "setting": "weeds [2]; Digitaria sanguinalis, DIGSA", "value": 30, "unit": "%"}, {"measurement": "pest or weed control at 15.625 g/ha", "setting": "weeds [2]; Echinochloa crus-galli, ECHCG", "value": 0, "unit": "%"}, {"measurement": "pest or weed control at 62.5 g/ha", "setting": "weeds [2]; Echinochloa crus-galli, ECHCG", "value": 5, "unit": "%"}, {"measurement": "pest or weed control at 250 g/ha", "setting": "weeds [2]; Echinochloa crus-galli, ECHCG", "value": 50, "unit": "%"}, {"measurement": "pest or weed control at 15.625 g/ha", "setting": "weeds [2]; Setaria faberi, SETFA", "value": 0, "unit": "%"}, {"measurement": "pest or weed control at 62.5 g/ha", "setting": "weeds [2]; Setaria faberi, SETFA", "value": 20, "unit": "%"}, {"measurement": "pest or weed control at 250 g/ha", "setting": "weeds [2]; Setaria faberi, SETFA", "value": 70, "unit": "%"}, {"measurement": "Estimated IC50 (ppm)", "setting": "Arabidopsis HST", "value": 63, "unit": "ppm"}]}, {"molecule": "O=c1c(-c2c(F)ccc(Cl)c2Cl)c(O)c2nccnc2n1CC(F)F", "note": "[Compound 2.21]", "values": [{"measurement": "pest or weed control at 15.625 g/ha", "setting": "weeds [1]; [3]", "value": 0, "unit": "%"}, {"measurement": "pest or weed control at 62.5 g/ha", "setting": "weeds [1]; [3]", "value": 2, "unit": "%"}, {"measurement": "pest or weed control at 250 g/ha", "setting": "weeds [1]; [3]", "value": 5, "unit": "%"}, {"measurement": "pest or weed control at 15.625 g/ha", "setting": "weeds [1]; [4]", "value": 0, "unit": "%"}, {"measurement": "pest or weed control at 62.5 g/ha", "setting": "weeds [1]; [4]", "value": 0, "unit": "%"}, {"measurement": "pest or weed control at 250 g/ha", "setting": "weeds [1]; [4]", "value": 0, "unit": "%"}, {"measurement": "pest or weed control at 15.625 g/ha", "setting": "weeds [1]; [5]", "value": 0, "unit": "%"}, {"measurement": "pest or weed control at 62.5 g/ha", "setting": "weeds [1]; [5]", "value": 0, "unit": "%"}, {"measurement": "pest or weed control at 250 g/ha", "setting": "weeds [1]; [5]", "value": 1, "unit": "%"}, {"measurement": "pest or weed control at 15.625 g/ha", "setting": "weeds [1]; [6]", "value": 0, "unit": "%"}, {"measurement": "pest or weed control at 62.5 g/ha", "setting": "weeds [1]; [6]", "value": 0, "unit": "%"}, {"measurement": "pest or weed control at 250 g/ha", "setting": "weeds [1]; [6]", "value": 0, "unit": "%"}, {"measurement": "pest or weed control at 15.625 g/ha", "setting": "weeds [1]; [7]", "value": 0, "unit": "%"}, {"measurement": "pest or weed control at 62.5 g/ha", "setting": "weeds [1]; [7]", "value": 0, "unit": "%"}, {"measurement": "pest or weed control at 250 g/ha", "setting": "weeds [1]; [7]", "value": 5, "unit": "%"}, {"measurement": "pest or weed control at 15.625 g/ha", "setting": "weeds [1]; [8]", "value": 0, "unit": "%"}, {"measurement": "pest or weed control at 62.5 g/ha", "setting": "weeds [1]; [8]", "value": 0, "unit": "%"}, {"measurement": "pest or weed control at 250 g/ha", "setting": "weeds [1]; [8]", "value": 2, "unit": "%"}, {"measurement": "pest or weed control at 15.625 g/ha", "setting": "weeds [2]; BRAPL", "value": 5, "unit": "%"}, {"measurement": "pest or weed control at 62.5 g/ha", "setting": "weeds [2]; BRAPL", "value": 30, "unit": "%"}, {"measurement": "pest or weed control at 250 g/ha", "setting": "weeds [2]; BRAPL", "value": 80, "unit": "%"}, {"measurement": "pest or weed control at 15.625 g/ha", "setting": "weeds [2]; PANMI", "value": 10, "unit": "%"}, {"measurement": "pest or weed control at 62.5 g/ha", "setting": "weeds [2]; PANMI", "value": 30, "unit": "%"}, {"measurement": "pest or weed control at 250 g/ha", "setting": "weeds [2]; PANMI", "value": 70, "unit": "%"}, {"measurement": "pest or weed control at 15.625 g/ha", "setting": "weeds [2]; SIDSP", "value": 5, "unit": "%"}, {"measurement": "pest or weed control at 62.5 g/ha", "setting": "weeds [2]; SIDSP", "value": 20, "unit": "%"}, {"measurement": "pest or weed control at 250 g/ha", "setting": "weeds [2]; SIDSP", "value": 40, "unit": "%"}, {"measurement": "pest or weed control at 15.625 g/ha", "setting": "weeds [2]; Digitaria sanguinalis, DIGSA", "value": 0, "unit": "%"}, {"measurement": "pest or weed control at 62.5 g/ha", "setting": "weeds [2]; Digitaria sanguinalis, DIGSA", "value": 10, "unit": "%"}, {"measurement": "pest or weed control at 250 g/ha", "setting": "weeds [2]; Digitaria sanguinalis, DIGSA", "value": 20, "unit": "%"}, {"measurement": "pest or weed control at 15.625 g/ha", "setting": "weeds [2]; Echinochloa crus-galli, ECHCG", "value": 0, "unit": "%"}, {"measurement": "pest or weed control at 62.5 g/ha", "setting": "weeds [2]; Echinochloa crus-galli, ECHCG", "value": 10, "unit": "%"}, {"measurement": "pest or weed control at 250 g/ha", "setting": "weeds [2]; Echinochloa crus-galli, ECHCG", "value": 40, "unit": "%"}, {"measurement": "pest or weed control at 15.625 g/ha", "setting": "weeds [2]; Setaria faberi, SETFA", "value": 2, "unit": "%"}, {"measurement": "pest or weed control at 62.5 g/ha", "setting": "weeds [2]; Setaria faberi, SETFA", "value": 20, "unit": "%"}, {"measurement": "pest or weed control at 250 g/ha", "setting": "weeds [2]; Setaria faberi, SETFA", "value": 60, "unit": "%"}, {"measurement": "Estimated IC50 (ppm)", "setting": "Arabidopsis HST", "value": 64, "unit": "ppm"}]}]}
